Reference: ChEMBL document CHEMBL1156449, “The nucleoside analog sangivamycin induces apoptotic cell death in breast carcinoma MCF7/adriamycin-resistant cells via protein kinase Cdelta and JNK activation” (J Biol Chem, 2007)
The source made the active and inactive calls. The rule behind the calls is not given here.

Legend:
MCF/WT [1] = experiment: Induction of JNK p46 isoform phosphorylation in human drug-sensitive MCF/WT cells at 0.3 uM after 48 hrs by immunoblot analysis; assay type: cell-based
MCF/ADR [2] = experiment: Increase in Bcl-x/s levels in human multidrug resistant MCF/ADR cells at 0.3 uM by immunoblot analysis; assay type: functional, cell-based
MCF/ADR [3] = experiment: Induction of apoptosis in human multidrug resistant MCF/ADR cells assessed as activation of caspase 7 at 0.3 uM by immunoblot analysis; assay type: functional, cell-based
MCF/ADR [4] = experiment: Inhibition of induction of apoptosis in human multidrug resistant MCF/ADR cells assessed as inhibition of cleavage of PARP at 0.3 uM after 48 hrs by immunoblot analysis in presence of caspase 9-specific inhibitor; assay type: functional, cell-based
[5] = Cell cycle arrest in human drug-sensitive MCF/WT cells assessed as accumulation at sub G0/G1 phase at 0.3 uM after 24 hrs by propidium fluorescence flow cytometry; assay type: functional, cell-based
[6] = target: Transcription factor Jun (Homo sapiens) (UniProt P05412); experiment: Induction of c-Jun serine 63 phosphorylation in human multidrug resistant MCF/ADR cells at 0.3 uM; assay type: cell-based
Chain of Transcription factor Jun (Homo sapiens) (P05412 whole entry): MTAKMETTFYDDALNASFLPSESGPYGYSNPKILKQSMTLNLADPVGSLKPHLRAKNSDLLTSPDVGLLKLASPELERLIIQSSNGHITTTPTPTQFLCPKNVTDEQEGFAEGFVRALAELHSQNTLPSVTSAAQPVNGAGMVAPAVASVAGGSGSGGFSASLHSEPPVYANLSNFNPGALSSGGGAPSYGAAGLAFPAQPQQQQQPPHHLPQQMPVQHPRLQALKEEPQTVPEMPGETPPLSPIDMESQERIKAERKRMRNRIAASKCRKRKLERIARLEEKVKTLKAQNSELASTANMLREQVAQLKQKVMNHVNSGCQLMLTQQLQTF

MCF/ADR [7] = experiment: Induction of apoptosis in human multidrug resistant MCF/ADR cells assessed as activation of caspase 6 at 0.3 uM by immunoblot analysis; assay type: functional, cell-based
MCF/ADR [8] = experiment: Induction of apoptosis in human multidrug resistant MCF/ADR cells assessed as cleavage of lamin A at 0.3 uM by immunoblot analysis; assay type: functional, cell-based
[9] = Cell cycle arrest in human multidrug resistant MCF/ADR cells assessed as accumulation at S phase at 0.3 uM after 48 hrs by propidium fluorescence flow cytometry; assay type: functional, cell-based
MCF-10A = experiment: Induction of apoptosis in human MCF10A cells assessed as accumulation of PARP at 0.3 uM after 48 hrs by immunoblot analysis; assay type: functional, cell-based
[10] = target: Transcription factor Jun (Homo sapiens) (UniProt P05412); experiment: Reduction in induction of non phosphorylated form of c-Jun in SP600125 pretreated human multidrug resistant MCF/ADR cells at 0.3 uM after 48 hrs by immunoblot analysis; assay type: cell-based
[11] = Cell cycle arrest in human multidrug resistant MCF/ADR cells assessed as accumulation at S phase at 0.3 uM after 24 hrs by propidium fluorescence flow cytometry; assay type: functional, cell-based
[12] = target: T1, c-Jun N-terminal kinase, JNK (Homo sapiens) (UniProt P45983+P53779+P45984); experiment: Inhibition of induction of JNK phosphorylation in human multidrug resistant MCF/ADR cells at 0.3 uM after 48 hrs by immunocytochemical analysis in presence of rottlerin; assay type: cell-based
MCF/ADR [13] = experiment: Cytocidal effect in human multidrug resistant MCF/ADR cells assessed as decrease in number of viable cells at 0.1 uM after 72 hrs by MTT colorimetric assay; assay type: functional, cell-based
MCF/ADR [14] = experiment: Blockade of apoptosis induction in human multidrug resistant MCF/ADR cells at 0.3 uM after 48 hrs in presence of rottlerin; assay type: functional, cell-based
[15] = Inhibition of nuclear protein kinase 1
[16] = Cell cycle arrest in human multidrug resistant MCF/ADR cells assessed as accumulation at G0/G1 phase at 0.3 uM after 72 hrs by propidium fluorescence flow cytometry; assay type: functional, cell-based
[17] = target: Bcl-2-like protein 1 (Homo sapiens) (UniProt Q07817); experiment: Inhibition of induction of Bcl-x/s phosphorylation in human multidrug resistant MCF/ADR cells at 0.3 uM after 48 hrs in presence of SP600125; assay type: functional, cell-based
Chain of Bcl-2-like protein 1 (Homo sapiens) (Q07817 whole entry): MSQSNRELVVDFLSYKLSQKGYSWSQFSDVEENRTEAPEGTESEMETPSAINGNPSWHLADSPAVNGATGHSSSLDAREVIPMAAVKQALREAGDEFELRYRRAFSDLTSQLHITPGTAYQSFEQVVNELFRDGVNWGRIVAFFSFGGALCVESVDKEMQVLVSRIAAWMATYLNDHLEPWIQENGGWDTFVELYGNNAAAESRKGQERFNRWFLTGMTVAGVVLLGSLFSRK

[18] = Inhibition of PKC
MCF/ADR [19] = experiment: Inhibition of induction of apoptosis in human multidrug resistant MCF/ADR cells assessed as inhibition of cleavage of lamin A at 0.3 uM after 48 hrs by immunoblot analysis in presence of caspase 9-specific inhibitor; assay type: functional, cell-based
[20] = Cell cycle arrest in human multidrug resistant MCF/ADR cells assessed as accumulation at S phase at 0.3 uM after 72 hrs by propidium fluorescence flow cytometry; assay type: functional, cell-based
[21] = target: Transcription factor Jun (Homo sapiens) (UniProt P05412); experiment: Reduction in induction of c-Jun phosphorylation in human multidrug resistant MCF/ADR cells transfected with c-Jun siRNA at 0.3 uM after 48 hrs by immunoblot analysis; assay type: cell-based
[22] = Cell cycle arrest in human drug-sensitive MCF/WT cells assessed as accumulation at G0/G1 phase at 0.3 uM after 48 hrs by propidium fluorescence flow cytometry; assay type: functional, cell-based
[23] = Cell cycle arrest in human drug-sensitive MCF/WT cells assessed as accumulation at S phase at 0.3 uM after 24 hrs by propidium fluorescence flow cytometry; assay type: functional, cell-based
[24] = Cell cycle arrest in human drug-sensitive MCF/WT cells assessed as accumulation at S phase at 0.3 uM after 48 hrs by propidium fluorescence flow cytometry; assay type: functional, cell-based
[25] = Cell cycle arrest in human drug-sensitive MCF/WT cells assessed as accumulation at S phase at 0.3 uM after 72 hrs by propidium fluorescence flow cytometry; assay type: functional, cell-based
MCF/ADR [26] = experiment: Induction of JNK p54 isoform phosphorylation in human multidrug resistant MCF/ADR cells at 0.3 uM after 48 hrs by immunoblot analysis; assay type: cell-based
MCF/ADR [27] = experiment: Blockade of apoptosis induction in human multidrug resistant MCF/ADR cells at 0.3 uM after 48 hrs in presence of SP600125; assay type: functional, cell-based
MCF/WT [28] = experiment: Induction of apoptosis in human drug-sensitive MCF/WT cells assessed as activation of caspase 7 at 0.3 uM by immunoblot analysis; assay type: functional, cell-based
MCF/WT [29] = experiment: Increase in p21CIP accumulation in human drug-sensitive MCF/WT cells at 0.3 uM after 48 hrs by immunoblot analysis; assay type: functional, cell-based
[30] = target: Transcription factor Jun (Homo sapiens) (UniProt P05412); experiment: Induction of c-Jun serine 73 phosphorylation in human multidrug resistant MCF/ADR cells at 0.3 uM; assay type: cell-based
[31] = Reduction in induction of c-Jun expression in human multidrug resistant MCF/ADR cells at 0.3 uM after 48 hrs by immunoblot analysis in presence of rottlerin; assay type: functional, cell-based
[32] = Cell cycle arrest in human drug-sensitive MCF/WT cells assessed as accumulation at G2/M phase at 0.3 uM after 72 hrs by propidium fluorescence flow cytometry; assay type: functional, cell-based
[33] = Cell cycle arrest in human drug-sensitive MCF/WT cells assessed as accumulation at G0/G1 phase at 0.3 uM after 72 hrs by propidium fluorescence flow cytometry; assay type: functional, cell-based
[34] = target: T1, c-Jun N-terminal kinase, JNK (Homo sapiens); experiment: Effect on mitochondrial localization of phosphorylated JNK with Bcl-x/l in human multidrug resistant MCF/ADR cells assessed as enhanced JNK activity by Mitotracker red staining; assay type: cell-based
[35] = target: Transcription factor Jun (Homo sapiens) (UniProt P05412); experiment: Reduction in induction of c-Jun expression in human multidrug resistant MCF/ADR cells at 0.3 uM after 48 hrs by immunoblot analysis in presence of pan-specific caspase inhibitor; assay type: cell-based
[36] = Cell cycle arrest in human multidrug resistant MCF/ADR cells assessed as accumulation at sub G0/G1 phase at 0.3 uM after 72 hrs by propidium fluorescence flow cytometry; assay type: functional, cell-based
[37] = Cell cycle arrest in human multidrug resistant MCF/ADR cells assessed as accumulation at G0/G1 phase at 0.3 uM after 24 hrs by propidium fluorescence flow cytometry; assay type: functional, cell-based
[38] = Cell cycle arrest in human multidrug resistant MCF/ADR cells assessed as accumulation at sub G0/G1 phase at 0.3 uM after 48 hrs by propidium fluorescence flow cytometry; assay type: functional, cell-based
MCF/WT [39] = experiment: Increase in Bcl-2 levels in human drug-sensitive MCF/WT cells at 0.3 uM by immunoblot analysis; assay type: functional, cell-based

With `NC(=O)c1cn([C@@H]2O[C@H](CO)[C@@H](O)[C@H]2O)c2ncnc(N)c12` [SANGIVAMYCIN] the Activity (MCF/WT [1]) was “inactive”, the Activity (MCF/ADR [2]) was “Active” and the Activity (MCF/ADR [3]) was “Active”. The Activity (MCF/ADR [4]) was “Active”, the Activity [5] was 1% and the Activity [6] was “Active”. The Activity (MCF/ADR [7]) was “Active”, the Activity (MCF/ADR [8]) was “Active” and the Activity [9] was 23%. The Activity (MCF-10A) was “inactive”, the Activity [10] was “Active” and the Activity [11] was 25%. For the same molecule, the Activity [12] was “Active”, the Activity (MCF/ADR [13]) was “Active” and the Activity (MCF/ADR [14]) was “Active”. The Ki [15] was 200 µM, the Activity [16] was 17% and the Activity [17] was “Active”. For the same molecule, the Ki [18] was 10 µM, the Activity (MCF/ADR [19]) was “Active” and the Activity [20] was 25%. The Activity [21] was “Active”, the Activity [22] was 61% and the Activity [23] was 23%. The Activity [24] was 9%, the Activity [25] was 11% and the Activity (MCF/ADR [26]) was “Active”. The Activity (MCF/ADR [27]) was “Active”, the Activity (MCF/WT [28]) was “inactive” and the Activity (MCF/WT [29]) was “Active”. For the same molecule, the Activity [30] was “Active”, the Activity [31] was “Active” and the Activity [32] was 28%. For the same molecule, the Activity [33] was 57%, the Activity [34] was “Active” and the Activity [35] was “inactive”. It also gave an Activity [36] of 50%, an Activity [37] of 33% and an Activity [38] of 40%. For the same molecule, the Activity (MCF/WT [39]) was “Active”.
